Where two headings read alike, the source gives them in different places.
Legend:
Assay type in all cases: cell-based
[1] = test system: IKZF2; assay: GFP-IKZF2 cellular degradation assay (eGFP fusion/mCherry reporter, Flip-In 293 cells); settings: Flip-In 293 cells stably expressing IKZF2 GFP fusion with mCherry reporter, 5 h
Experimental: IKZF1A and IKZF2A were subcloned into mammalian pcDNA5/FRT Vector (Ampicillin and Hygromycin B resistant) modified to contain MCS-eGFP-P2A-mCherry. Stable cell lines expressing eGFP-protein fusion and mCherry reporter were generated using Flip-In 293 system. Plasmid (0.3 μg) and pOG44 (4.7 μg) DNA were preincubated in 100 μL of Opti-MEM™ I (Gibco™, Life Technologies™) media containing 0.05 mg/mL Lipofectamine™ 2000 (Invitrogen™) for 20 min and added to Flip-In 293 cells containing 1.9 mL of DMEM media (Gibco™, Life Technologies™) per well in a 6-well plate format (Falcon, 353046). Cells were propagated for 48 h and were then transferred into a 10 cm^2 plate (Corning, 430165) in DMEM media containing 50 μg/mL of Hygromycin B (REF 10687010, Invitrogen™) as a selection marker. Following 2-3 passage cycle, FACS (FACSAria™ II, BD) was used to enrich for cells expressing eGFP and mCherry.
(§1) Cells stably expressing the IKZF1A, or IKZF2A GFP fusions with mCherry reporter were seeded at 30-50% confluency in 384-well plates with 50 μL FluoroBrite™ DMEM media (Thermo Fisher Scientific™ A18967) containing 10% FBS per well a day before compound treatment. Compound titrations were dispensed using a D300e Digital Dispenser (HP), normalized to 0.5% DMSO, and incubated with cells for 5 hours.
(§2) The assay plate was imaged immediately using an Acumen High Content Imager (TTP Labtech) with 488 nm and 561 nm lasers in […] per well format. The resulting images were analyzed using CellProfiler (Carpenter et al., Genome Biol. 2006, 7:R100). A series of image analysis steps (‘image analysis pipeline’) was constructed. First, the red and green channels were aligned and cropped to target the middle of each well (to avoid analysis of heavily clumped cells at the edges), and a background illumination function was calculated for both red and green channels of each well individually and subtracted to correct for illumination variations across the 384-well plate from various sources of error. An additional step was then applied to the green channel to suppress the analysis of large auto fluorescent artifacts and enhance the analysis of cell specific fluorescence by way of selecting for objects under a given size, 30 A.U., and with a given shape, speckles. mCherry-positive cells were then identified in the red channel filtering for objects between 8-60 pixels in diameter and using intensity to distinguish between clumped objects. The green channel was then segmented into GFP positive and negative areas and objects were labeled as GFP positive if at least 40% of it overlapped with a GFP positive area. The fraction of GFP-positive cells/mCherry-positive cells in each well was then calculated, and the green and red images were rescaled for visualization. The concentrations that lead to half degradation at 5 h (DC50, 5h) were calculated using the nonlinear fit variable slope model (GraphPad Software).

[2] = molecular target: T1, IKZF1 (Homo sapiens, UniProt Q13422); assay: GFP-IKZF1 cellular degradation assay (eGFP fusion/mCherry reporter, Flip-In 293 cells)
T1 construct: expressed in transfected cells
T1 sequence (Q13422 83-213 isoform Q13422-7 limits assumed): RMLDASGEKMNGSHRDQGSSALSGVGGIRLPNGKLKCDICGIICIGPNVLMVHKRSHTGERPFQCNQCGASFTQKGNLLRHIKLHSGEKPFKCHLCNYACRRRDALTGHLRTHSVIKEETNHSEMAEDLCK
T1 sequence (Q96SW2 whole entry partner, the tested form may be a part): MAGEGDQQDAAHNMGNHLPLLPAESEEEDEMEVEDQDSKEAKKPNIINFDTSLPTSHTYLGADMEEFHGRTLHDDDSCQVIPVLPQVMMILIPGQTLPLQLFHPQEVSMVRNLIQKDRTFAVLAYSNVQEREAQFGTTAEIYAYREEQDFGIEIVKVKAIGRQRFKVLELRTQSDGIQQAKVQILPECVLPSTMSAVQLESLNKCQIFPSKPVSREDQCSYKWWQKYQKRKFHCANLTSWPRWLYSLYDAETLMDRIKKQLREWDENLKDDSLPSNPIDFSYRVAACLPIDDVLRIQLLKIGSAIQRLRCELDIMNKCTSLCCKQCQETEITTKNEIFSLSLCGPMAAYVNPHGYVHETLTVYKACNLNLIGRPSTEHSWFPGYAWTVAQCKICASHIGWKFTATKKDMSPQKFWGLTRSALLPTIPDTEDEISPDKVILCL
T1 sequence (Q16531 whole entry partner, the tested form may be a part): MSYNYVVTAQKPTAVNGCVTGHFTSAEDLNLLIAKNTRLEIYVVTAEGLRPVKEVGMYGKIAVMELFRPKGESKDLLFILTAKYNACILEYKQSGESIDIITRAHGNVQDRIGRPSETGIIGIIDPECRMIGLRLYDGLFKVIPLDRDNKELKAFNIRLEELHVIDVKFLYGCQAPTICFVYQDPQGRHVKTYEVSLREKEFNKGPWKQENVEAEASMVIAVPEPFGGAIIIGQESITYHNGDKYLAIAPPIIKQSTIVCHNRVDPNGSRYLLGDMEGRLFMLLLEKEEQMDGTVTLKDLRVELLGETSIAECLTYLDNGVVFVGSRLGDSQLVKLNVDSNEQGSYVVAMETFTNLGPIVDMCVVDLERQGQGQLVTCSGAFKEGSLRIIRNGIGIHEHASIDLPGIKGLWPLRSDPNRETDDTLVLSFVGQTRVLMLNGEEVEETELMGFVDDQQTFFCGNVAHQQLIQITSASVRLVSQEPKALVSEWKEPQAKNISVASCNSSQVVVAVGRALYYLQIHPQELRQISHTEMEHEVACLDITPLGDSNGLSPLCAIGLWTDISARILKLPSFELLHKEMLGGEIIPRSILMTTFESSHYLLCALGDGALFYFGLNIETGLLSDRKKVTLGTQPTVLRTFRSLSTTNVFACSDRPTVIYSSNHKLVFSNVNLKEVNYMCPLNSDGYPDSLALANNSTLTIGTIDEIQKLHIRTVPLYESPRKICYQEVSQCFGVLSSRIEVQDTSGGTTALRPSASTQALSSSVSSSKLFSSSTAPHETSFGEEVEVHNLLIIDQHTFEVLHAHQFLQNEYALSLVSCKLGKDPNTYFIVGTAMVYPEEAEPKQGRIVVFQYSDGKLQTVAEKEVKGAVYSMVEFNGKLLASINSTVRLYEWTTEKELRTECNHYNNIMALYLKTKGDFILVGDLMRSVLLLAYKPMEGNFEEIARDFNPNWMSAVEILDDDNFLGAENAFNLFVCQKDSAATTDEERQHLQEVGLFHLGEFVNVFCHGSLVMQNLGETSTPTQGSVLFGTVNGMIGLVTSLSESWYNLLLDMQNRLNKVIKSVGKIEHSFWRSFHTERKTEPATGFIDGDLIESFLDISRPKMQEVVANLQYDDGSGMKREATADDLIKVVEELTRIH
Experimental: IKZF1A and IKZF2A were subcloned into mammalian pcDNA5/FRT Vector (Ampicillin and Hygromycin B resistant) modified to contain MCS-eGFP-P2A-mCherry. […] Following 2-3 passage cycle, FACS (FACSAria™ II, BD) was used to enrich for cells expressing eGFP and mCherry.
as §1
as §2, with “The resulting images were analyzed using CellProfiler (Carpenter et al., Genome Biol. 2006, 7:R100).” left out

[3] = molecular target: T2, Helios (Homo sapiens, UniProt Q96SW2+Q9UKS7); assay: Degradation in Jurkat cells (immunoblot); settings: 4 hours, indicated concentrations
T2 construct: Immunoblots for Ikaros, Helios, and Actin from wildtype Jurkat cells; endogenous in cells; host or cells: wild-type Jurkat cells
T2 sequence (Q9UKS7 whole entry): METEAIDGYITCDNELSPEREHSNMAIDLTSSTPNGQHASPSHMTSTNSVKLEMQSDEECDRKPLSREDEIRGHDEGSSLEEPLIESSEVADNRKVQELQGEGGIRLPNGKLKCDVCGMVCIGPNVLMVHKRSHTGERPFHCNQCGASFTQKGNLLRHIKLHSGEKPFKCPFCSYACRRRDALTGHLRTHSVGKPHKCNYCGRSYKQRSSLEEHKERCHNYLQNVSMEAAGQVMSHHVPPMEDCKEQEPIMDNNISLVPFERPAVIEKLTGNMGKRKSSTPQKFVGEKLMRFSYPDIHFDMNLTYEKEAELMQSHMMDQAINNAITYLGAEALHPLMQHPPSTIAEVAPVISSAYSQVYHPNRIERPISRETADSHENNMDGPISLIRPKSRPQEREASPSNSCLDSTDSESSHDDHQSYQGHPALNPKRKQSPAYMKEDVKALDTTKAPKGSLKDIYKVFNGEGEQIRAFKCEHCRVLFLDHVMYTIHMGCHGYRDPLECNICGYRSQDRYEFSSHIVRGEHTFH
T2 sequence (Q96SW2 whole entry): as the sequence (Q96SW2 whole entry partner, the tested form may be a part) above
T2 sequence (Q16531 whole entry partner): as the sequence (Q16531 whole entry partner, the tested form may be a part) above
Experimental: Cells were lysed in M-PER® buffer (Thermo Scientific) containing protease/phosphatase inhibitor cocktail (Roche). Protein concentration was measured using a BCA assay (Pierce™). Equivalent amounts of each sample were loaded on 4-12% Bis-Tris gels (Invitrogen™), transferred to nitrocellulose membranes, and immunoblotted with the indicated antibodies. IRDye®800-labeled goat anti-rabbit IgG and IRDye®680-labeled goat anti-mouse IgG (LI-COR®) secondary antibodies were purchased from LI-COR®, and membranes were detected on an Odyssey® detection system (LI-COR® Biosciences).
Immunoblots for Ikaros, Helios, and Actin from wildtype Jurkat cells treated with compound 36 or 65 for 4 hours at the indicated concentrations were generated (FIG. 1).

[4] = molecular target: T3, IKZF1 (Homo sapiens, UniProt Q13422+Q96SW2); assay: HiBit-IKZF1 degradation assay in Molt4 cells
T3 construct: knocked into the endogenous IKZF2 or IKZF1 locus of Molt4 cells; endogenous in cells; host or cells: Molt4 (CRISPR/Cas9 HiBit knock-in)
T3 sequence (Q13422 whole entry): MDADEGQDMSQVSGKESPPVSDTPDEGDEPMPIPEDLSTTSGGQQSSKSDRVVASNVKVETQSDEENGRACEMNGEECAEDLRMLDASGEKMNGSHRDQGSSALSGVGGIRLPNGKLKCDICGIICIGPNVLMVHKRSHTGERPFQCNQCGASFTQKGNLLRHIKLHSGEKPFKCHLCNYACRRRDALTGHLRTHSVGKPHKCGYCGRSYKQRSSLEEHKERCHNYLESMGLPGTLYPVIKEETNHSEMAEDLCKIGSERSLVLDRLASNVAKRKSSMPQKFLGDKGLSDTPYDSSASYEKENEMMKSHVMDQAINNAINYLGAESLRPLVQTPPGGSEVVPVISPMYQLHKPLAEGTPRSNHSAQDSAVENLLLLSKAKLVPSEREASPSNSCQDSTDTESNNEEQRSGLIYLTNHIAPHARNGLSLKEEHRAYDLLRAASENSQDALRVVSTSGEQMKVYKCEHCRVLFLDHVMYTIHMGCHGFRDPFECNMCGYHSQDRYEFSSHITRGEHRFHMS
T3 sequence (Q96SW2 whole entry): as the sequence (Q96SW2 whole entry partner, the tested form may be a part) above
T3 sequence (Q16531 whole entry partner): as the sequence (Q16531 whole entry partner, the tested form may be a part) above
Experimental: (§3) The HiBit tag was knocked into the endogenous IKZF2 or IKZF1 locus of Molt4 cells to generate a HiBit-IKZF2 or HiBit-IKZF1 fusion proteins via CRISPR/Cas9 gene editing. Cells were then treated with a 12 point concentration curve of the indicated compounds, and luminescence (corresponding to Helios abundance) was detected after 6 hours using the Nano-Glo® HiBit Lytic Detection system (Promega™). The concentration necessary to achieve 50% degradation (DC50) was calculated using Prism (GraphPad).

[5] = molecular target: T4, IKZF2 (Homo sapiens, UniProt Q96SW2+Q9UKS7); assay: HiBit-IKZF2 degradation assay in Molt4 cells
T4 construct: knocked into the endogenous IKZF2 or IKZF1 locus of Molt4 cells; endogenous in cells; host or cells: Molt4 (CRISPR/Cas9 HiBit knock-in)
T4 sequence (Q9UKS7 whole entry): as the sequence (Q9UKS7 whole entry) above
T4 sequence (Q96SW2 whole entry): as the sequence (Q96SW2 whole entry partner, the tested form may be a part) above
T4 sequence (Q16531 whole entry partner): as the sequence (Q16531 whole entry partner, the tested form may be a part) above
Experimental: as §3

**Q.** What does the source list for `CN(C)C(CC(=O)Nc1cccc(C(F)(F)F)c1)c1cccc(NC2=CC(=O)N(C3CCC(=O)NC3=O)C2=O)c1` (stereo not shown) [Compound 36, 3-(dimethylamino)-3-(3-((1-(2,6-dioxopiperidin-3-yl)-2,5-dioxo-2,5-dihydro-1H-pyrrol-3-yl)amino)phenyl)-N-(3-(trifluoromethyl)phenyl)propanamide]?
**A.** DC50 [1]: 2.3 nM; DC50 ([2]; Flip-In 293 cells stably expressing IKZF1 GFP fusion with mCherry reporter, 5 h; read-out: GFP IKZF1 DC50): 5.4 nM; Helios degradation (immunoblot, FIG. 1) [3]: Helios degradation; DC50 ([4]; Molt4 cells with endogenous HiBit-IKZF1 knock-in, 6 hours, Nano-Glo HiBit luminescence; read-out: IKZF1 DC50): 15 nM; DC50 ([5]; Molt4 cells with endogenous HiBit-IKZF2 knock-in, 6 hours, Nano-Glo HiBit luminescence; read-out: IKZF2 DC50): 2.5 nM

**Q.** What does the source list for `CC(C)(NCCc1cccc(C(F)(F)F)c1)c1cccc(NC2=CC(=O)N(C3CCC(=O)NC3=O)C2=O)c1` (stereo not shown) [Compound 65, 3-(2,5-dioxo-3-((3-(2-((3-(trifluoromethyl)phenethyl)amino)propan-2-yl)phenyl)amino)-2,5-dihydro-1H-pyrrol-1-yl)piperidine-2,6-dione]?
**A.** DC50 [1]: 3.6 nM; DC50 ([2]; read-out: GFP IKZF1 DC50; Flip-In 293 cells stably expressing IKZF1 GFP fusion with mCherry reporter, 5 h): 5.1 nM; Helios degradation (immunoblot, FIG. 1) [3]: Helios degradation; DC50 ([4]; read-out: IKZF1 DC50; Molt4 cells with endogenous HiBit-IKZF1 knock-in, 6 hours, Nano-Glo HiBit luminescence): 18 nM; DC50 ([5]; read-out: IKZF2 DC50; Molt4 cells with endogenous HiBit-IKZF2 knock-in, 6 hours, Nano-Glo HiBit luminescence): 17 nM

Reference: patent publication US20230192644A1, “PIPERIDINE-2,6-DIONES AS SMALL MOLECULE DEGRADERS OF HELIOS AND METHODS OF USE” (DANA-FARBER CANCER INSTITUTE, INC., priority 2020, published 2023)
